The subject of the test is Vesicular stomatitis virus. The test can be described thus: Antiviral activity against pseudotype VSV harbouring glycoprotein infected in human 293T/ACE2 cells assessed as inhibition of viral infection measured after 48 hrs by luciferase reporter gene assay. In kind it is functional, organism-based. (A reporter such as luciferase makes a cellular process visible.)

Active and inactive are the calls of the source. The rule behind the calls is not given here.

With `COc1c2c3c4c(c(OC)c(=O)c5c(O)cc(OC)c(c6c(OC)cc(O)c(c1=O)c63)c54)[C@@H](C(C)=O)[C@@](C)(O)C2` [HYPOCRELLIN A], the result was inactive.

In the case of `COC1=C(CC(C)=O)C(=O)c2c(c(O)cc(OC)c2-c2c(OC)cc(O)c3c2C(=O)C(CC(C)=O)=C(OC)C3=O)C1=O`, the result was inactive.

Take `COc1c(O)c2c(=O)cc(OC)c3c4c(OC)cc(=O)c5c(O)c(OC)c6c(c(c1C[C@](C)(O)[C@H]6C(C)=O)c23)c54`: the outcome was inactive.

These data come from ChEMBL document CHEMBL4813952, “Axial Chiral Binaphthoquinone and Perylenequinones from the Stromata of Hypocrella bambusae Are SARS-CoV-2 Entry Inhibitors” (J Nat Prod, 2021).
